Source: US11142527B2, “Dihydropyrimidine compounds and uses thereof in medicine” (SUNSHINE LAKE PHARMA CO., LTD., priority 2017, dated 2021)

What was measured:
HBV [1] = experiment: Test of anti HBV activity in vitro (viral DNA by qPCR); type: cell-based; conditions: Hepatitis B virus; HepG2.2.15 cells, viral DNA in cell culture supernatant by qPCR; read-out: EC50 values of the compound of the invention on viral replication
How it was run: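 HepG2.2.15 cells (integrated HBV genome) were grown to confluence, then treated with compound in 4-fold dilutions from 4 μM final (0.5% DMSO). Secreted viral DNA in supernatant was quantified by SYBR qPCR against an HBV plasmid standard curve; EC50 from four-parameter nonlinear regression of concentration versus copy number.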

[2] = Cytotoxicity test with CellTiter Glo; type: cell-based; conditions: human, HepG2.2.15 cells, highest concentration 150 μM, read-out: CC50 values of the compounds of the invention
How it was run: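 HepG2.2.15 cells (3000/well) exposed to serially diluted compound, highest final concentration 150 μM, for 4 days at 37 °C. Viability read by CellTiter Glo, cytotoxicity % taken relative to DMSO controls, and CC50 obtained by four-parameter nonlinear regression.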

HBV [3] = conditions: Science, 2003, 299, 893-896; cited from earlier work

## COC(=O)C1=C(CN2CCN3C(=O)N(c4nc(-c5cc(F)cc(C(=O)O)c5)cs4)C[C@@H]3C2)NC(c2nccs2)=N[C@H]1c1ccc(F)cc1Cl [Example 138, 3-(2-((S)-7-(((R)-6-(2-chloro-4-fluorophenyl)-5-(methoxycarbonyl)-2-(thiazol-2-yl)-3,6-dihydropyrimidin-4-yl)methyl)-3-oxohexahydroimidazo[1,5-a]pyrazin-2(3H)-yl)thiazol-4-yl)-5-fluorobenzoic acid]
HBV [1]
  EC50: 34 nM
[2]
  CC50 at 4 days: > 150000 nM

## COC(=O)C1=C(CN2CCN3C(=O)N(c4nc(-c5cccc(C(=O)O)c5)cs4)C[C@@H]3C2)NC(c2nccs2)=N[C@H]1c1ccc(F)cc1Cl [Example 139, 3-(2-((S)-7-(((R)-6-(2-chloro-4-fluorophenyl)-5-(methoxycarbonyl)-2-(thiazol-2-yl)-3,6-dihydropyrimidin-4-yl)methyl)-3-oxohexahydroimidazo[1,5-a]pyrazin-2(3H)-yl)thiazol-4-yl)benzoic acid]
HBV [1]
  EC50: 10.7 nM
[2]
  CC50 at 4 days: > 150000 nM

## Nc1ccn([C@@H]2CS[C@H](CO)O2)c(=O)n1 [lamivudine]
HBV [3]
  IC50: 300 nM
